These results are taken from ChEMBL document CHEMBL1126430, “The role of arginine in interactions of microcystins with protein phosphatases 1 and 2a” (Bioorg Med Chem Lett, 1992).

Test [1] in a line: Compound was evaluated for the ability to inhibit specific [3H]-okadaic acid binding to Protein phosphatase 1.
Test [2] in a line: Compound was evaluated for the ability to inhibit dephosphorylation of [32P]phosphorylase by Protein phosphatase 1.
Test [3] is described as follows: Compound was evaluated for the ability to inhibit specific [3H]-okadaic acid binding to protein phosphatase 2A (PP2A).
The nature of test [4]: Compound was evaluated for the ability to inhibit dephosphorylation of [32P]phosphorylase by protein phosphatase 2A (PP2A).
The nature of test [5]: Effective dose that causes 50 % inhibition of protein phosphatase 2A (PP2A), isolated from mouse skin.

Starred links: 1 amine or outer side, 2 acyl side, 3 side chain; linkers in the order of their positions; H or OH if unused. Positions of bridges follow the written chain, without caps; N, C: chain ends. Non-standard residues stand in square brackets, D forms with d. Residues, ends and D or L forms follow the SMILES beside them. Adda = CO[C@@H](Cc1ccccc1)[C@@H](C)/C=C(C)/C=C/[C@H](N[*:1])[C@H](C)C(=O)[*:2]; dAsp(3S-Me) = C[C@H](C(=O)[*:3])[C@@H](N[*:1])C(=O)[*:2]; d(γGlu) = O=C(O)[C@@H](CCC(=O)[*:2])N[*:1]; NMeDha = C=C(NC)C(=O)O

Turning to `C=C1C(=O)N[C@H](C)C(=O)N[C@@H](CC(C)C)C(=O)N[C@@H](C(=O)O)[C@H](C)C(=O)N[C@@H](C)C(=O)N[C@@H](/C=C/C(C)=C/[C@H](C)[C@H](Cc2ccccc2)OC)[C@H](C)C(=O)N[C@@H](C(=O)O)CCC(=O)N1C` (A[Adda][d(γGlu)][NMeDha][dA]L[dAsp(3S-Me)]-OH; lactam N-7), the ED50 in test [1] was 10.6 nM; in test [2] it was 0.9 nM; in test [3], 10 nM; in test [4] it was 0.38 nM.
Turning to `C=C1C(=O)N[C@H](C)C(=O)N[C@@H](CC(C)C)C(=O)N[C@@H](C(=O)O)[C@H](C)C(=O)N[C@@H](CCCNC(=N)N)C(=O)N[C@@H](/C=C/C(C)=C/[C@H](C)[C@H](Cc2ccccc2)OC)[C@H](C)C(=O)N[C@@H](C(=O)O)CCC(=O)N1C` (R[Adda][d(γGlu)][NMeDha][dA]L[dAsp(3S-Me)]-OH; lactam N-7), the ED50 in test [1] was found to be 7.8 nM; in test [2] it was 0.44 nM; in test [3], 5.2 nM; in test [5], 0.8 nM; in test [4], 0.32 nM.
As to `CC=C1C(=O)N[C@@H](C(=O)O)[C@H](C)C(=O)N[C@@H](CCCNC(=N)N)C(=O)N[C@@H](/C=C/C(C)=C/[C@H](C)[C@H](Cc2ccccc2)OC)[C@H](C)C(=O)N[C@@H](C(=O)O)CCC(=O)N1C`, in test [5], the ED50 is 0.9 nM.
